Experimental data as given in patent US9309242B2, “Substituted pyrido[2,3-b]pyrazines as FGFR kinase inhibitors” (priority 2011, dated 2016).

Tests used:
[1] = molecular target: KDR (h) (Homo sapiens, UniProt P35968); experiment: KDR (VEGFR2) (enzymatic assay), TR-FRET; assay type: biochemical; conditions: read-out: VEGFR 2 (KDR) pIC50 (converted)
Method in brief: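 First, kinase (150 ng/ml), Btn-Flt3 (500 nM), ATP (3 μM) and compound (1% DMSO) react 120 min at RT in pH 7.5 HEPES/6 mM MnCl2. Next, EDTA with Eu-anti-P-Tyr and SA-XL-665 stops it for 60 min. Finally, TR-FRET is read as RFU.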

[2] = tested on: Ba/F3-FGFR1-transfected cells; experiment: Ba/F3-FGFR1 (plus IL3) cellular proliferation assay, counterscreen with 10 ng/ml murine IL3; assay type: cell-based; conditions: plus IL3 (10 ng/ml murine IL3, counterscreen); read-out: BAF3-FGFR1 (PLUS IL3) pIC50 (converted)
Method in brief: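 Ba/F3-FGFR1 cells (20000/well) in RPMI-1640 with 10% FBS exposed to compound for 24 h at 37° C., 5% CO2, then Alamar Blue (resazurin) added for 4 h; fluorescence read at ex 540/em 590 nm. Counterscreen run identically with 10 ng/ml murine IL3.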

[3] = molecular target: T1, Ba/F3-FGFR3-transfected cells (Homo sapiens, UniProt P22607); experiment: Ba/F3-FGFR3 (minus IL3) cellular proliferation assay, Alamar Blue; assay type: cell-based
T1 construct: BAF3-FGFR3 (MIN IL3) pIC50; other: minus IL3
T1 sequence (P22607 whole entry, change not shown): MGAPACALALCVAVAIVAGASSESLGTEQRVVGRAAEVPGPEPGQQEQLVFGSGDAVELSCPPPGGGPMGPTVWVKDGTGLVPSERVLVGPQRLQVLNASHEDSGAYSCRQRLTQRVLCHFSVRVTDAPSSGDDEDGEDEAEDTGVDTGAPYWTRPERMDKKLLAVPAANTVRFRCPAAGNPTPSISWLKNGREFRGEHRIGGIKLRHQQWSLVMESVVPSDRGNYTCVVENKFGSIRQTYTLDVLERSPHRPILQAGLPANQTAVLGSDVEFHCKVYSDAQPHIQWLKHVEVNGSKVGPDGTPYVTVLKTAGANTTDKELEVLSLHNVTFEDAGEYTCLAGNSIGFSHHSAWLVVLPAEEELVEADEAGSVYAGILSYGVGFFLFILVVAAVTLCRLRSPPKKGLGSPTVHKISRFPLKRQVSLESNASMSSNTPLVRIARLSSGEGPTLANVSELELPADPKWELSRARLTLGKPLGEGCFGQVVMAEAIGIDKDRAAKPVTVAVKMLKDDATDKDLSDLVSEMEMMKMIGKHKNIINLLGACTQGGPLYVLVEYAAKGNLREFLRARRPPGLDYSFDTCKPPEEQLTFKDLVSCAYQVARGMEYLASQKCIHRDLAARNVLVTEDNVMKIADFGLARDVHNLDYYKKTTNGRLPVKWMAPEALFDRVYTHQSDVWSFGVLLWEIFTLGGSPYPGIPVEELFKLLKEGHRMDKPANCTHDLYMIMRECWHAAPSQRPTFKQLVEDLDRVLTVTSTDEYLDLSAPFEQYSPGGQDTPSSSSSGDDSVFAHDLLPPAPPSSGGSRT
Method in brief: (§1)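 Viability readout was resazurin reduction (ex 540/em 590 nm) after 4 h, following 24 h compound treatment at 37 °C of FGFR3-transfected Ba/F3 cells (20000/well, RPMI-1640/10% FBS). IL3-dependent counterscreen used identical conditions plus 10 ng/ml murine IL3.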

[4] = tested on: Ba/F3-FGFR3-transfected cells; experiment: Ba/F3-FGFR3 (plus IL3) cellular proliferation assay, counterscreen with 10 ng/ml murine IL3; assay type: cell-based; conditions: plus IL3 (10 ng/ml murine IL3, counterscreen); read-out: BAF3-FGFR3 (PLUS IL3) pIC50 (converted)
Method in brief: as §1

[5] = molecular target: T2, Ba/F3-KDR-transfected cells (Homo sapiens, UniProt P35968); experiment: Ba/F3-KDR (minus IL3) cellular proliferation assay, Alamar Blue; assay type: cell-based
T2 construct: BAF3-KDR (MIN IL3) pIC50; other: minus IL3
T2 sequence (P35968 whole entry, change not shown): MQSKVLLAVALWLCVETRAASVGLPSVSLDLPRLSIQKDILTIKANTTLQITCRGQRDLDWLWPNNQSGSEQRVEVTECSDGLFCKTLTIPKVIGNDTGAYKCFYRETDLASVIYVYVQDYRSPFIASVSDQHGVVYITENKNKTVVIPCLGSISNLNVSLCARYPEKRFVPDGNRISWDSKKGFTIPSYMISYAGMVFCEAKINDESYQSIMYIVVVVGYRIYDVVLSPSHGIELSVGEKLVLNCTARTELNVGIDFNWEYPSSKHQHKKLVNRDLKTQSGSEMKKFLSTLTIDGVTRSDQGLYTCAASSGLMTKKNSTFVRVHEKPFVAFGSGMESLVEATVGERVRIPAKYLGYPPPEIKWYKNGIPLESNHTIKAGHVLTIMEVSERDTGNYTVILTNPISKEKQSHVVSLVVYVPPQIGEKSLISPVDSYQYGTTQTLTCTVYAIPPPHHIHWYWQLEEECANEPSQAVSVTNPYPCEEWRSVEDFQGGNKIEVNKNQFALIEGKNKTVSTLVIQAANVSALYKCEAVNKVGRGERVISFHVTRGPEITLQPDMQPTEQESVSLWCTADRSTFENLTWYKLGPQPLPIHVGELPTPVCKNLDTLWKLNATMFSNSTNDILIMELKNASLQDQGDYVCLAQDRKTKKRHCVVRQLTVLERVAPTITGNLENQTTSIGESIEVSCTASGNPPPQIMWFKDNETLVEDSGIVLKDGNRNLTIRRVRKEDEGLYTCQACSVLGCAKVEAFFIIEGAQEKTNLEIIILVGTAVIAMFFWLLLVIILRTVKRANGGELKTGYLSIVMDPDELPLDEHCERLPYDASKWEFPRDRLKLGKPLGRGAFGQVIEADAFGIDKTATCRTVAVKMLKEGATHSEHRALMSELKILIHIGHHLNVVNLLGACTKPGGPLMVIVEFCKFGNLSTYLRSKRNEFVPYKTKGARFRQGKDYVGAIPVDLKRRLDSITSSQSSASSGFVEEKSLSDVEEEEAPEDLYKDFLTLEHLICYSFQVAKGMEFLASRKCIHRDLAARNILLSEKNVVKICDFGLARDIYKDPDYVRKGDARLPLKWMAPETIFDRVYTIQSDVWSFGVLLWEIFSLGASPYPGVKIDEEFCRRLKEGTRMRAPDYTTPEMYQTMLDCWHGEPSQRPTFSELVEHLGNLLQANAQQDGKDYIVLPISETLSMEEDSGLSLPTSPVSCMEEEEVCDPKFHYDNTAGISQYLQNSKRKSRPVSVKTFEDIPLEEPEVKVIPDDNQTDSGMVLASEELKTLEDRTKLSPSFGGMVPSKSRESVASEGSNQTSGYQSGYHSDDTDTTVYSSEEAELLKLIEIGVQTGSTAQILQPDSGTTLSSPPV
Method in brief: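 Proliferation is measured as Alamar Blue relative fluorescence units following 24 h compound treatment of 20000 cells per well in 10% FBS medium. The IL3-supplemented run serves as a counterscreen under the same conditions.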

[6] = molecular target: Ba/F3-FGFR4-transfected cells (Homo sapiens, UniProt P22455); experiment: Ba/F3-FGFR4 cellular proliferation assay, Alamar Blue; assay type: cell-based
Sequence of Ba/F3-FGFR4-transfected cells (P22455 whole entry, change not shown): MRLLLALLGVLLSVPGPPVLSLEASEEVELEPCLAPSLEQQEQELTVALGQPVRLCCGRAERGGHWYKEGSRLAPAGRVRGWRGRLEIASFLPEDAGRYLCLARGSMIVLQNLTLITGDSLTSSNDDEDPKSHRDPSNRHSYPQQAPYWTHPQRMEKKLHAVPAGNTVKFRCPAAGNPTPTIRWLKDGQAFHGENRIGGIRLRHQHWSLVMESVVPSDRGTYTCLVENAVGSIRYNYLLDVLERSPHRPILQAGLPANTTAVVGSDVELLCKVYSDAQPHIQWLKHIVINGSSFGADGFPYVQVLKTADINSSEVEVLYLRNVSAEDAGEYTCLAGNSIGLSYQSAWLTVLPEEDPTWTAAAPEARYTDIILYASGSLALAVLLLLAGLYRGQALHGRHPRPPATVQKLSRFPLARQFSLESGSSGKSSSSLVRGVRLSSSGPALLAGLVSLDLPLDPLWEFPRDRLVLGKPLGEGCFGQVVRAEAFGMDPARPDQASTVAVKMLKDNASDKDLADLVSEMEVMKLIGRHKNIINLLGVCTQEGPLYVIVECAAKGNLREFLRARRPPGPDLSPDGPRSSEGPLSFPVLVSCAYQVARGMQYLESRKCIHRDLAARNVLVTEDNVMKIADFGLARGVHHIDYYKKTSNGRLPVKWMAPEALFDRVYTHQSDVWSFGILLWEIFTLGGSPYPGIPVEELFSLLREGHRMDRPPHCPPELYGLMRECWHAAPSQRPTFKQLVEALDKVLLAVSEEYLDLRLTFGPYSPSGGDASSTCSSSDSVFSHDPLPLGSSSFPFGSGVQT
Method in brief: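 Proliferation of Ba/F3-FGFR4-transfected cells is gauged by Alamar Blue (resazurin) fluorescence after 24 hours of compound treatment in phenol red free RPMI-1640 with 10% FBS.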

Sequence of KDR (h) (P35968 20-1356): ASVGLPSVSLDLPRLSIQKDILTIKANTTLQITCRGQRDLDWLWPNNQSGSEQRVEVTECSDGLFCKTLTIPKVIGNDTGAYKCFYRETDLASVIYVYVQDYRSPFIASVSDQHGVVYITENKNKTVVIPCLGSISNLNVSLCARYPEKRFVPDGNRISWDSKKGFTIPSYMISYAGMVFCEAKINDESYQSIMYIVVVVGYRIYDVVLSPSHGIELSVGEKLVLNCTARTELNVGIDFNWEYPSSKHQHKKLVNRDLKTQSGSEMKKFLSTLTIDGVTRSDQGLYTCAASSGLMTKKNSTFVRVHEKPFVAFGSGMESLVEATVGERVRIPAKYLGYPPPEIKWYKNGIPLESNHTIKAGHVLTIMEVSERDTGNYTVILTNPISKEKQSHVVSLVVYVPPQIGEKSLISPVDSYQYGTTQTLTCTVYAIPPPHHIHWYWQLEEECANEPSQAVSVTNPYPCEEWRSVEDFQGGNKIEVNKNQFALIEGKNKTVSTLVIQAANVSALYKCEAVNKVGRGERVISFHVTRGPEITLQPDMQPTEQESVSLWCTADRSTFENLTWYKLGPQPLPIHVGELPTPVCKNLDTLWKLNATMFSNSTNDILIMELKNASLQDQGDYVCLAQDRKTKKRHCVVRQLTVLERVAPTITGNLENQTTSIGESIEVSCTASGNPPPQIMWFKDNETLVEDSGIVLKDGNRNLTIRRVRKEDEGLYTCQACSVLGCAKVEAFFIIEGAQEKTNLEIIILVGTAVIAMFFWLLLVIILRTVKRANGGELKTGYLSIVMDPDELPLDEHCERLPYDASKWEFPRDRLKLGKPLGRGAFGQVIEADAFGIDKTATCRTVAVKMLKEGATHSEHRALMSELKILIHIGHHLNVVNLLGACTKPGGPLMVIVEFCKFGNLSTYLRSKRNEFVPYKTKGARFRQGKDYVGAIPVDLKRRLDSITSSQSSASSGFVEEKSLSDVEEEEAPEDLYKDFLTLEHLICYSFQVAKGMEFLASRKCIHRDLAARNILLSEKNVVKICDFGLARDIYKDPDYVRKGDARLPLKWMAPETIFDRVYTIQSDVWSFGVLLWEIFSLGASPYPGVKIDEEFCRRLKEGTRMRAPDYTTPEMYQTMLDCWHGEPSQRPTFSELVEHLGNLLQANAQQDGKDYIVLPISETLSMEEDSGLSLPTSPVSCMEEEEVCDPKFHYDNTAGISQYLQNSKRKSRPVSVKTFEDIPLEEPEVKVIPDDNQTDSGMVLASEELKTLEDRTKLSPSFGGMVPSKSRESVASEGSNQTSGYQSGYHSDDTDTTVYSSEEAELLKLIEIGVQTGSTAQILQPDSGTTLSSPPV

Row | SMILES | IC50 [1] [µM] | IC50 [2] [µM] | BAF3-FGFR3 (MIN IL3) pIC50 [3] | IC50 [4] [µM] | BAF3-KDR (MIN IL3) pIC50 [5] | BAF3-FGFR4 pIC50 [6]
1 | COc1cc(OC)cc(N(Cc2ncc[nH]2)c2ccc3ncc(-c4ccn(C)c4)nc3n2)c1 [Compound 198] | 0.00457 | > 10 | ~8.15 | > 10 | 6.68 | 8.05
2 | COc1cc(OC)c(F)c(N(Cc2ncc[nH]2)c2ccc3ncc(-c4ccccc4)nc3n2)c1 [Compound 200] | ~0.00955 | > 10 | ~8.13 | > 10 | 5.99 | 7.33
3 | COc1cc(OC)cc(N(Cc2ncc[nH]2)c2ccc3ncc(-c4ccncc4)nc3n2)c1 [Compound 202] | 0.0617 | > 10 | ~7.67 | > 10 | 5.24 | 6.81
4 | COc1cc(OC)cc(N(Cc2nncn2CCO)c2ccc3ncc(-c4cnn(C)c4)nc3n2)c1 [Compound 204] | 0.302 | > 10 | 6.09 | > 10 | <5 | 5.49
5 | COc1cc(OC)cc(N(Cc2ncn(CCO)n2)c2ccc3ncc(-c4cnn(C)c4)nc3n2)c1 [Compound 205] | 0.0389 | > 10 | 6.20 | > 10 | 5.45 | 5.62
6 | CCOCc1c[nH]c(CN(c2ccc3ncc(-c4cnn(C)c4)nc3n2)c2cc(OC)cc(OC)c2F)n1 [Compound 206] | 0.0275 | > 10 | ~8.12 | > 10 | 5.84 | 7.34
7 | COc1cc(OC)c(F)c(N(Cc2ncc[nH]2)c2ccc3ncc(-c4cnn(C(CO)CCl)c4)nc3n2)c1 (stereo not drawn) [Compound 209] | 0.00759 | > 10 | 8.25 | > 10 | 6.57 | 7.92
8 | COc1cc(OC)c(F)c(N(Cc2ncc[nH]2)c2ccc3ncc(-c4ccncc4)nc3n2)c1 [Compound 211] | 0.0363 | > 10 | ~8.11 | > 10 | 5.82 | 7.29
9 | COc1cc(OC)cc(N(CCO)c2ccc3ncc(-c4ccncc4)nc3n2)c1 [Compound 213] | 0.245 | > 10 | ~6.7 | > 10 | 5.01 | 6.15
10 | COC(=O)CN(c1ccc2ncc(-c3cnn(C)c3)nc2n1)c1cc(OC)cc(OC)c1F [Compound 214] | 0.145 | > 10 | ~7.18 | > 10 | 5.31 | 6.52
11 | COc1cc(OC)c(F)c(N(Cc2ncc[nH]2)c2ccc3ncc(N4CCOCC4)nc3n2)c1F [Compound 215] | 0.0525 | > 10 | 8.18 | > 10 | 5.91 | 7.54
12 | COc1cc(OC)cc(N(Cc2nnco2)c2ccc3ncc(-c4cnn(C)c4)nc3n2)c1 [Compound 217] | 0.162 | > 10 | ~6.68 | > 10 | 5.18 | 6.03
13 | COc1cc(OC)c(F)c(N(Cc2nc(OC)cc(OC)n2)c2ccc3ncc(-c4cnn(C)c4)nc3n2)c1 [Compound 220] | 0.0501 | > 10 | 5.91 | > 10 | 5.22 | 5.83
14 | COc1cc(OC)c(F)c(N(CCNC2COC2)c2ccc3ncc(-c4cnn(C)c4)nc3n2)c1 [Compound 221] | ~0.0295 | > 10 | ~7.67 | > 10 | 6.11 | 6.98
15 | COc1cc(OC)c(F)c(N(CCN(C2COC2)C2COC2)c2ccc3ncc(-c4cnn(C)c4)nc3n2)c1 [Compound 222] | 0.0407 | > 10 | ~7.19 | > 10 | 5.68 | 6.55
16 | CCn1cc(-c2cnc3ccc(N(Cc4ncc[nH]4)c4cc(OC)cc(OC)c4F)nc3n2)cn1 [Compound 223] | 0.00708 | > 10 | ~8.58 | > 10 | 6.81 | 7.95
17 | COc1cc(OC)c(F)c(N(CC(=O)c2cnn(C)c2)c2ccc3ncc(-c4cnn(C)c4)nc3n2)c1 [Compound 225] | 0.2 | > 10 | 6.29 | > 10 | 5.17 | 5.96
18 | COc1cc(OC)cc(N(Cc2ncc[nH]2)c2ccc3ncc(-c4cnn(C5CCNCC5)c4)nc3n2)c1 [Compound 227] | 0.012 | > 10 | 7.63 | > 10 | 5.79 | 6.91
19 | COc1cc(OC)cc(N(Cc2n[nH]c(=O)o2)c2ccc3ncc(-c4cnn(C)c4)nc3n2)c1 [Compound 229] | 0.182 | > 10 | 6.05 | > 10 | <5 | 5.45
20 | COc1cc(OC)c(F)c(N(CC(=O)NCCO)c2ccc3ncc(-c4cnn(C)c4)nc3n2)c1 [Compound 230] | 0.363 | > 10 | 6.18 | > 10 | 5.04 | 5.73
21 | COc1cc(OC)c(F)c(N(CC(=O)O)c2ccc3ncc(-c4cnn(C)c4)nc3n2)c1 [Compound 231] | 0.2 | > 10 | 5.75 | > 10 | <5 | 5.02
22 | COc1cc(OC)c(F)c(N(Cc2nc(CO)c[nH]2)c2ccc3ncc(-c4cnn(C)c4)nc3n2)c1 [Compound 232] | 0.0224 | > 10 | 7.81 | > 10 | 5.83 | 6.96
23 | COc1cc(OC)c(F)c(N(CCO)c2ccc3ncc(-c4cnn(CCO)c4)nc3n2)c1 [Compound 233] | 0.0257 | > 10 | 7.40 | > 10 | 5.90 | 6.91
24 | COc1cc(OC)c(F)c(N(Cc2nc(Br)c[nH]2)c2ccc3ncc(-c4cnn(C)c4)nc3n2)c1 [Compound 238] | 0.0112 | > 10 | ~8.45 | > 10 | 6.46 | 8.06
25 | COc1cc(OC)c(F)c(N(Cc2ncc[nH]2)c2ccc3ncc(-c4cnn(CC(C)(C)O)c4)nc3n2)c1 [Compound 240] | 0.0155 | > 10 | ~8.52 | > 10 | 6.89 | 7.87
26 | COc1cc(OC)c(F)c(N(CCNC(C)=O)c2ccc3ncc(-c4cnn(C)c4)nc3n2)c1 [Compound 242] | 0.0282 | > 10 | ~8.11 | > 10 | 5.49 | 7.22
27 | COc1cc(/N=c2\ccc3ncc(-c4cnn(C)c4)nc3n2CC2CCC(=O)N2)cc(OC)c1 (stereo not drawn) [Compound 248] | 0.02 | > 10 | 6.67 | > 10 | 5.76 | 6.25
28 | COc1cc(OC)c(F)c(N(Cc2n[nH]c(=O)o2)c2ccc3ncc(-c4cnn(C)c4)nc3n2)c1 [Compound 284] | 0.0631 | > 10 | 6.42 | > 10 | <5 | 6.01
